Experimental findings from patent publication US7393846B2, “Heterocyclic compounds useful for the treatment of inflammatory and allergic disorders” (Glenmark Pharmaceuticals, S.A., priority 2003, dated 2008) are described below.

Data set [1] has as its target PDE4 enzyme. The data set can be described thus: Inhibition of Phosphodiesterase Enzymes (PDE4), [3H]cAMP hydrolysis assay. Format: biochemical. Particulars: for IC50: PDE4 inhibition, 1 μM cAMP, 34° C., 20 minutes. The protocol:
Inhibition of Phosphodiesterase Enzymes (PDE4)
In this assay, PDE4 enzyme converts [^3H] cAMP to the corresponding [^3H] 5′-AMP in proportion to the amount of PDE4 present. The [^3H] 5′-AMP then was quantitatively converted to free [^3H] adenosine and phosphate by the action of snake venom 5′-nucleotidase.
The assay was performed with modification of the method of Thompson and Appleman (Biochemistry; 1971; 10; 311-316) and Schwartz and Passoneau (Proc. Natl. Acad. Sci. U.S.A. 1974; 71; 3844-3848), both references incorporated herein by reference in their entirety, at 34° C. In a 200 ul total reaction mixture, the reaction mixture contained 12.5 mM of Tris, 5 mM MgCl2, 1 μM cAMP (cold) and ^3H cAMP (0.1 uCi), (Amersham). […] Drug samples were then added in the reaction mixture (25 μt/tube). The assay was initiated by addition of enzyme mix (75 μl) and the mixture was incubated for 20 minutes at 34° C. The reaction was stopped by boiling the tubes for 2 mins at 100° C. in a water bath. After cooling on ice for 5 minutes and addition of 50 ug/reaction of 5′-nucleotidase snake venom from Crotalus atrox incubation was carried out again for 20 min. at 34° C. The unreacted substrate was separated from (^3H) Adenosine by addition of Dowex AG 1-X8 (Biorad Lab), (400 ul) which was prequilibrated (1:1:1) in water and ethanol. Reaction mixture was then thoroughly mixed, placed on ice for 15 minutes, vortexed and centrifuged at 14,000 r.p.m. for 2 mins. After centrifugation, a sample of the supernatant was taken and added in 24 well optiplates containing Scintillant (1 ml) and mixed well. The samples in the plates were then determined for radioactivity in a Top Counter and the PDE4 activity was estimated. PDE4 enzyme was present in quantities that yield <30% total hydrolysis of substrate (linear assay conditions).
Results were expressed as percent inhibition (IC50) in nM concentrations. The IC50 values were determined from the concentration curves by nonlinear regression analysis.

Data set [2] has as its system PDE4. The data set can be described thus: EC50 of the PDE4 results table (method not given).

What is called melting point is the temperature of the solid-liquid transition. In general, IC50 refers to the concentration at which inhibition is half-maximal. Read a low IC50 as greater potency in that assay. Broadly, the EC50 is the concentration that produces a half-maximal response. Lower therefore signals higher potency in that assay.

`CC(=O)Nc1ccc2oc3c(OC(F)F)ccc(C(=O)Nc4c(Cl)cncc4Cl)c3c2c1` [Example 34, N-(3,5-dichloropyrid-4-yl)-4-difluoromethoxy-8-acetamido-dibenzo[b,d]furan-1-carboxamide]: the melting point was 234 °C. The compound further showed an IC50 in data set [1] of 3.55 nM. In addition, the EC50 in data set [2] was 14.8 nM.
Consider `COc1ccc(C(=O)Nc2c(Cl)cncc2Cl)c2c1oc1ccc(NC(=O)C(F)(F)F)cc12` [Example 14, N-(3,5-dichloropyrid-4-yl)-4-methoxy-8-trifluoroacetamido-dibenzo[b,d]furan-1-carboxamide], for which the melting point was > 300 °C. The compound further registered a half-inhibitory concentration (IC50) in data set [1] of 7.01 nM. In data set [2], this compound returned an EC50 of 14.1 nM.
Take `CCN(CC)C(=O)Nc1ccc2oc3c(OC)ccc(C(=O)Nc4c(Cl)cncc4Cl)c3c2c1` [Example 20, N-(3,5-dichloropyrid-4-yl)-4-methoxy-8-N,N-diethylaminocarboxamido-dibenzo[b,d]furan-1-carboxamide]: the melting point is > 250 °C. Besides, 10.3 nM corresponded to half-maximal inhibition in data set [1] (IC50). This compound also displayed an EC50 in data set [2] of 8.29 nM.
For `COc1ccc(C(=O)Nc2c(Cl)cncc2Cl)c2c1oc1ccc(NC(=O)OCC3CC3)cc12` [Example 18, N-(3,5-dichloropyrid-4-yl)-4-methoxy-8-cyclopropylmethoxycarboxamido-dibenzo[b,d]furan-1-carboxamide], the melting point stood at 272 °C. This compound gave an IC50 in data set [1] of 3.47 nM. This compound showed a 50% effective concentration (EC50) in data set [2] of 19.1 nM.
`COc1ccc(C(=O)Nc2cccnc2)c2c1oc1ccc(NC(C)=O)cc12` [Example 46, N1-(pyrid-3-yl)-4-methoxy-8-acetamido-dibenzo[b,d]furan-1-carboxamide]: the melting point is > 250 °C. The IC50 in data set [1] stood at 134 nM.
For `COc1ccc(C(=O)Nc2c(Cl)cncc2Cl)c2c1oc1ccc(NC(C)=O)cc12` [Example 04, N-(3,5-dichloropyrid-4-yl)-4-methoxy-8-acetamido-dibenzo[b,d]furan-1-carboxamide], the melting point came to 252 °C. Besides, in data set [1], half-maximal inhibition (IC50) required 1.18 nM. This compound showed an EC50 in data set [2] of 13.6 nM.
As to `CCOC(=O)Nc1ccc2oc3c(OC)ccc(C(=O)Nc4c(Cl)cncc4Cl)c3c2c1` [Example 15, N-(3,5-dichloropyrid-4-yl)-4-methoxy-8-ethoxycarboxamido-dibenzo[b,d]furan-1-carboxamide], the melting point came out at 274 °C. Besides, it took 15.1 nM to reach half-maximal inhibition in data set [1] (IC50).
`COc1ccc(C(=O)NCc2ccccc2)c2c1oc1ccc(NC(C)=O)cc12` [Example 43, N1-benzyl-4-methoxy-8-acetamido-dibenzo[b,d]furan-1-carboxamide] had a melting point of 264 to 265 °C. Further, the “percent inhibition” value in data set [1] (PDE4 inhibition at 1 uM) came to 17.93% at 1 uM.
Take `CCNC(=S)Nc1ccc2oc3c(OC)ccc(C(=O)Nc4c(Cl)cncc4Cl)c3c2c1` [Example 44, N-(3,5-dichloropyrid-4-yl)-4-methoxy-8-(ethylaminothiocarboxamido)-dibenzo[b,d]furan-1-carboxamide]: the melting point was 260 °C. This compound also had an IC50 in data set [1] of 1.72 nM. The compound also had an EC50 in data set [2] of 3.93 nM.
The compound `CS(=O)(=O)Nc1ccc2oc3c(OC(F)F)ccc(C(=O)Nc4c(Cl)cncc4Cl)c3c2c1` [Example 30, N-(3,5-dichloropyrid-4-yl)-4-difluoromethoxy-8-methanesulfonamido-dibenzo[b,d]furan-1-carboxamide] displayed an IC50 in data set [1] of 1.63 nM. For the same compound, in data set [2], the EC50 was 3.59 nM.
In the case of `COc1ccc(C(=O)Nc2c(Cl)cncc2Cl)c2c1oc1ccc(NC(=O)c3ccco3)cc12` [Example 11, N-(3,5-dichloropyrid-4-yl)-4-methoxy-8-(fur-2-yl-carboxamido)-dibenzo[b,d]furan-1-carboxamide], 0.887 nM corresponded to half-maximal inhibition in data set [1] (IC50). The same compound gave an EC50 in data set [2] of 4.34 nM.
As to `COc1ccc(NC(=O)c2ccc(OC)c3oc4ccc(NC(C)=O)cc4c23)cc1` [Example 42, N1-(4-methoxyphenyl)-4-methoxy-8-acetamido-dibenzo[b,d]furan-1-carboxamide], the melting point turned out to be 285 °C. Also, the IC50 in data set [1] is 959 nM.
Regarding `CCOC(=O)C(=O)Nc1ccc2oc3c(OC(F)F)ccc(C(=O)Nc4c(Cl)cncc4Cl)c3c2c1` [Example 37, N-(3,5-dichloropyrid-4-yl)-4-difluoromethoxy-8-ethoxycarbonylcarboxamido-dibenzo[b,d]furan-1-carboxamide], the IC50 in data set [1] was determined as 21.5 nM. The concentration giving a half-maximal response (EC50) in data set [2] was > 278 nM.
For `O=C(Nc1ccc2oc3c(OC(F)F)ccc(C(=O)Nc4c(Cl)cncc4Cl)c3c2c1)c1ccco1` [Example 40, N-(3,5-dichloropyrid-4-yl)-4-difluoromethoxy-8-fur-2-ylcarboxamido-dibenzo[b,d]furan-1-carboxamide] the same measures were 22 nM and 11.3 nM.
`COc1ccc(C(=O)Nc2c(Cl)c[n+]([O-])cc2Cl)c2c1oc1ccc(NS(C)(=O)=O)cc12` [Example 48, N-(3,5-dichloropyrid-4-yl)-4-methoxy-8-methanesulfonamido-dibenzo[b,d]furan-1-carboxamide-N-oxide] displayed a 50% inhibitory concentration (IC50) in data set [1] of 1.67 nM. Further, the EC50 in data set [2] worked out at 11.9 nM.
In data set [1], `COc1ccc(C(=O)Nc2c(Cl)cncc2Cl)c2c1oc1ccc(NC(=O)C(=O)O)cc12` [Example 09, N-(3,5-dichloropyrid-4-yl)-4-methoxy-8-hydroxycarbonylcarboxamido-dibenzo[b,d]furan-1-carboxamide] gave a concentration for half-maximal inhibition (IC50) of 1.03 nM. In data set [2], this compound gave an EC50 of 138 nM.
For `COc1ccc(C(=O)Nc2c(Cl)cncc2Cl)c2c1oc1ccc(NS(=O)(=O)N(C)C)cc12` [Example 02, N-(3,5-dichloropyrid-4-yl)-4-methoxy-8-(N,N-dimethylsulphonamido)-dibenzo[b,d]furan-1-carboxamide] the same measures were 1.03 nM and 2.07 nM.
For `COc1ccc(C(=O)Nc2ccccc2)c2c1oc1ccc(NC(C)=O)cc12` [Example 41, N1-phenyl-4-methoxy-8-acetamido-dibenzo[b,d]furan-1-carboxamide], the melting point came to 252 °C. In data set [1], this compound had a half-inhibitory concentration (IC50) of 156 nM.
`COc1ccc(C(=O)Nc2ccncc2)c2c1oc1ccc(NC(C)=O)cc12` [Example 49, N-(pyrid-4-yl)-4-methoxy-8-acetamido-dibenzo[b,d]furan-1-carboxamide] registered a melting point of 267 to 268 °C. Moreover, the IC50 in data set [1] was 13.2 nM.
Take `COc1ccc(C(=O)Nc2c(Cl)cncc2Cl)c2c1oc1ccc(NC(=O)NCC(=O)O)cc12` [Example 51, N-(3,5-dichloropyrid-4-yl)-4-methoxy-8-(2-hydroxy-2-oxo-ethylaminocarbonylamino)-dibenzo[b,d]furan-1-carboxamide]: the IC50 in data set [1] was 1.98 nM. Also, in data set [2], the response was half-maximal at 122 nM (EC50).
In the case of `CCOC(=O)CNC(=O)Nc1ccc2oc3c(OC)ccc(C(=O)Nc4c(Cl)cncc4Cl)c3c2c1` [Example 50, N-(3,5-dichloropyrid-4-yl)-4-methoxy-8-(2-ethoxy-2-oxo-ethylaminocarbonylamino)-dibenzo[b,d]furan-1-carboxamide], the melting point was > 250 °C. The compound further came in with an IC50 in data set [1] of 9.93 nM. In data set [2], this compound gave an EC50 of 147 nM.
In data set [1], `COc1ccc(C(=O)Nc2c(Cl)cncc2Cl)c2c1oc1ccc(NC(=O)Oc3ccccc3)cc12` [Example 17, N-(3,5-dichloropyrid-4-yl)-4-methoxy-8-phenoxycarboxamido-dibenzo[b,d]furan-1-carboxamide] registered an IC50 of 9.09 nM. In data set [2], the EC50 amounted to 104 nM.
For `COc1ccc(C(=O)Nc2c(Cl)cncc2Cl)c2c1oc1ccc(NC(=O)N3CCOCC3)cc12` [Example 25, N-(3,5-dichloropyrid-4-yl)-4-methoxy-8-(morphol-4-ylcarboxamido)-dibenzo[b,d]furan-1-carboxamide] the same measures were 5.07 nM and 8.9 nM.
